Measurements reported in the NIST ThermoML archive (doi:10.1021/je7006549).

Columns and labels:
[1] = mn = molality of the nth substance listed, in mol/kg; conditions: 101 kPa, Liquid
[2] = 101 kPa, Liquid

CC1=CC(=O)c2ccccc2C1=O [2-methyl-1,4-naphthalenedione] + c1ccccc1
[1]
Conditions	mass density [kg/m3]	viscosity [mPa·s]
303.15 K, m1 = 0.0334	869.4	0.5788
303.15 K, m1 = 0.0889	871.8	0.5842
303.15 K, m1 = 0.1332	873.7	0.588
303.15 K, m1 = 0.1778	875.6	0.5927
303.15 K, m1 = 0.2215	877.5	0.6006
303.15 K, m1 = 0.2681	879.5	0.6063
308.15 K, m1 = 0.0334	863.6	0.5408
308.15 K, m1 = 0.0889	866	0.5443
308.15 K, m1 = 0.1332	867.9	0.5484
308.15 K, m1 = 0.1778	869.8	0.5519
308.15 K, m1 = 0.2215	871.7	0.5598
308.15 K, m1 = 0.2681	873.7	0.5667
313.15 K, m1 = 0.0334	858.4	0.5057
313.15 K, m1 = 0.0889	860.8	0.5096
313.15 K, m1 = 0.1332	862.7	0.5142
313.15 K, m1 = 0.1778	864.6	0.5189
313.15 K, m1 = 0.2215	866.5	0.5242
313.15 K, m1 = 0.2681	868.5	0.5309
318.15 K, m1 = 0.0334	853	0.4782
318.15 K, m1 = 0.0889	855.4	0.4811
318.15 K, m1 = 0.1332	857.3	0.4847
318.15 K, m1 = 0.1778	859.2	0.4893
318.15 K, m1 = 0.2215	861.1	0.4945
318.15 K, m1 = 0.2681	863.1	0.5
323.15 K, m1 = 0.0334	847.7	0.4467
323.15 K, m1 = 0.0889	850.1	0.4489
323.15 K, m1 = 0.1332	852	0.4528
323.15 K, m1 = 0.1778	853.9	0.4566
323.15 K, m1 = 0.2215	855.8	0.461
323.15 K, m1 = 0.2681	857.8	0.4647
328.15 K, m1 = 0.0334	842.1	0.4206
328.15 K, m1 = 0.0889	844.5	0.4235
328.15 K, m1 = 0.1332	846.4	0.4266
328.15 K, m1 = 0.1778	848.3	0.4318
328.15 K, m1 = 0.2215	850.2	0.4347
328.15 K, m1 = 0.2681	852.2	0.4388
333.15 K, m1 = 0.0334	836.8	0.3946
333.15 K, m1 = 0.0889	839.2	0.3967
333.15 K, m1 = 0.1332	841.1	0.4003
333.15 K, m1 = 0.1778	843	0.4069
333.15 K, m1 = 0.2215	844.9	0.4084
333.15 K, m1 = 0.2681	846.9	0.4121

c1ccccc1 [benzene]
[2]
Conditions	mass density [kg/m3]	viscosity [mPa·s]
303.15 K	868	0.564
308.15 K	862.2	0.5232
313.15 K	857	0.5001
318.15 K	851.6	0.4714
323.15 K	846.3	0.4397
328.15 K	840.7	0.4145
333.15 K	835.4	0.3932

c1ccccc1 [benzene] + CC1=CC(=O)c2ccccc2C1=O
[1], m2 = 0
Conditions	mass density [kg/m3]	viscosity [mPa·s]
303.15 K	868	0.564
308.15 K	862.2	0.5232
313.15 K	857	0.5001
318.15 K	851.6	0.4714
323.15 K	846.3	0.4397
328.15 K	840.7	0.4145
333.15 K	835.4	0.3932

CCc1ccccc1 [ethylbenzene]
[2]
Conditions	mass density [kg/m3]	viscosity [mPa·s]
303.15 K	858	0.5986
308.15 K	853.5	0.5691
313.15 K	849.5	0.5372
318.15 K	844.7	0.506
323.15 K	840.5	0.4805
328.15 K	835.9	0.4566
333.15 K	831.6	0.4371

CCc1ccccc1 [ethylbenzene] + CC1=CC(=O)c2ccccc2C1=O
[1], m2 = 0
Conditions	mass density [kg/m3]	viscosity [mPa·s]
303.15 K	858	0.5986
308.15 K	853.5	0.5691
313.15 K	849.5	0.5372
318.15 K	844.7	0.506
323.15 K	840.5	0.4805
328.15 K	835.9	0.4566
333.15 K	831.6	0.4371

Cc1ccccc1 [toluene]
[2]
Conditions	mass density [kg/m3]	viscosity [mPa·s]
303.15 K	857.5	0.5253
308.15 K	852.9	0.4933
313.15 K	847.9	0.4717
318.15 K	843.5	0.4491
323.15 K	838.7	0.4244
328.15 K	834	0.4082
333.15 K	829.1	0.3835

Cc1ccccc1 [toluene] + CC1=CC(=O)c2ccccc2C1=O
[1], m2 = 0
Conditions	mass density [kg/m3]	viscosity [mPa·s]
303.15 K	857.5	0.5253
308.15 K	852.9	0.4933
313.15 K	847.9	0.4717
318.15 K	843.5	0.4491
323.15 K	838.7	0.4244
328.15 K	834	0.4082
333.15 K	829.1	0.3835
